# Source: patent US20250057828A1, “COMBINATION OF AN A2-ADRENOCEPTOR SUBTYPE C (ALPHA-2C) ANTAGONIST WITH A NOREPINEPHRINE REUPTAKE INHIBITOR FOR THE TREATMENT OF SLEEP APNEA” (priority 2021, published 2025)
# System: pig model of obstructive sleep apnea (OSA)
# Test: pig model of obstructive sleep apnea (OSA): collapsibility of the upper respiratory tract under negative pressure
# Type: in vivo, German Landrace pigs
# Excerpt: The therapeutic potential of the combination of an α2-Adrenoceptor subtype C (alpha-2C) antagonists with a muscarinic receptor antagonist according to the present invention in sleep apnea can be assessed preclinically in a pig model of obstructive sleep apnea (OSA).
# Using negative pressure, it is possible to induce collapse and thus obstruction of the upper respiratory tract in anaesthetized, spontaneously breathing pigs (Wirth K. J. et al., Sleep 36(5) (2013) pp. 699-708).
# German Landrace pigs are used for the model. The pigs are anaesthetized and tracheotomized. Two tracheal cannulas are inserted into the trachea, one into the rostral part and the other into the caudal part of the trachea. Using a connection piece, the rostral cannula is connected to a tube to the negative pressure device and to the distal tracheal cannula. The distal tracheal cannula is additionally connected to a tube with an open end to atmosphere via a connection piece that served for free tracheal breathing, circumventing the upper airway. By appropriate opening and clamping of those tubes breathing can be switched from nasal breathing to breathing through the caudal tracheal cannula, circumventing the upper airway, and the (isolated) upper airway can be connected to the negative pressure device, causing airflow in the inspiratory direction.
# At certain points in time, the collapsibility of the upper respiratory tract is tested by having the pig breathe via the caudal cannula and applying negative pressures of −50, −100 and −150 cm water head (cm H2O) to the upper respiratory tract. This causes the upper respiratory tract to collapse, which manifests itself in an interruption of the airflow and a pressure drop in the tube system. This test is conducted prior to the administration of the test substance and at certain intervals after the administration of the test substance. An appropriately effective test substance can prevent this collapse of the respiratory tract in the inspiratory phase.
# [1] = 0.01 mg/kg intraduodenal, 0 min
# [2] = 0.01 mg/kg intraduodenal, 30 min
# [3] = 0.01 mg/kg intraduodenal, 60 min
# [4] = 0.01 mg/kg intraduodenal, 90 min
# [5] = 0.01 mg/kg intraduodenal, 120 min
# [6] = 0.01 mg/kg intraduodenal, 150 min
# [7] = 0.01 mg/kg intraduodenal, 180 min
# [8] = 0.01 mg/kg intraduodenal, 240 min
# [9] = 0.01 mg/kg intraduodenal, 270 min
# [10] = 0.01 mg/kg intraduodenal, 300 min
# [11] = R-oxybutynin intravenous bolus 1 mg/kg + infusion 0.275 mg/kg/h for four hours, 0 min
# [12] = R-oxybutynin intravenous bolus 1 mg/kg + infusion 0.275 mg/kg/h for four hours, 10 min
# [13] = R-oxybutynin intravenous bolus 1 mg/kg + infusion 0.275 mg/kg/h for four hours, 30 min
# [14] = R-oxybutynin intravenous bolus 1 mg/kg + infusion 0.275 mg/kg/h for four hours, 60 min
# [15] = R-oxybutynin intravenous bolus 1 mg/kg + infusion 0.275 mg/kg/h for four hours, 120 min
# [16] = R-oxybutynin intravenous bolus 1 mg/kg + infusion 0.275 mg/kg/h for four hours, 180 min
# [17] = R-oxybutynin intravenous bolus 1 mg/kg + infusion 0.275 mg/kg/h for four hours, 240 min
# [18] = intravenous bolus 1 mg/kg followed by infusion of 0,275 mg/kg/h for four hours
# [19] = intravenous bolus 1 mg/kg + infusion 0.275 mg/kg/h for four hours, 0 min
# [20] = intravenous bolus 1 mg/kg + infusion 0.275 mg/kg/h for four hours, 10 min
# [21] = intravenous bolus 1 mg/kg + infusion 0.275 mg/kg/h for four hours, 30 min
# [22] = intravenous bolus 1 mg/kg + infusion 0.275 mg/kg/h for four hours, 60 min
# [23] = intravenous bolus 1 mg/kg + infusion 0.275 mg/kg/h for four hours, 120 min
# [24] = intravenous bolus 1 mg/kg + infusion 0.275 mg/kg/h for four hours, 180 min
# [25] = intravenous bolus 1 mg/kg + infusion 0.275 mg/kg/h for four hours, 240 min
smiles,measurement,setting,value
"C[C@@H]1CCCN(C2CCN(c3ncc(C(=O)NCc4ncc(F)cc4F)s3)CC2)C1 [N-[(3,5-difluoropyridin-2-yl)methyl]-2-[(3R)-3-methyl[1,4′-bipiperidin]-1′-yl]-1,3-thiazole-5-carboxamide]","inhibited upper airway collapsibility at all negative pressures of −50, −100 and −150 cm head (cm H2O) in all pigs",0.01 mg/kg intraduodenal,at no time point
same,upper airway collapsibility at the negative pressures of −50 and −100 cm head (cm H2O),"0.01 mg/kg intraduodenal, time point 120 min",inhibited
same,upper airway collapsibility at the negative pressure of −50 cm head (cm H2O),"0.01 mg/kg intraduodenal, time point 150 min",inhibited
same,"Percent pigs without collaps −50 cm H2O, %",[1],0%
same,"Percent pigs without collaps −50 cm H2O, %",[2],0%
same,"Percent pigs without collaps −50 cm H2O, %",[3],25%
same,"Percent pigs without collaps −50 cm H2O, %",[4],75%
same,"Percent pigs without collaps −50 cm H2O, %",[5],100%
same,"Percent pigs without collaps −50 cm H2O, %",[6],100%
same,"Percent pigs without collaps −50 cm H2O, %",[7],75%
same,"Percent pigs without collaps −50 cm H2O, %",[8],50%
same,"Percent pigs without collaps −50 cm H2O, %",[9],25%
same,"Percent pigs without collaps −50 cm H2O, %",[10],25%
same,"Percent pigs without collaps −100 cm H2O, %",[1],0%
same,"Percent pigs without collaps −100 cm H2O, %",[2],0%
same,"Percent pigs without collaps −100 cm H2O, %",[3],0%
same,"Percent pigs without collaps −100 cm H2O, %",[4],75%
same,"Percent pigs without collaps −100 cm H2O, %",[5],100%
same,"Percent pigs without collaps −100 cm H2O, %",[6],75%
same,"Percent pigs without collaps −100 cm H2O, %",[7],50%
same,"Percent pigs without collaps −100 cm H2O, %",[8],25%
same,"Percent pigs without collaps −100 cm H2O, %",[9],25%
same,"Percent pigs without collaps −100 cm H2O, %",[10],0%
same,"Percent pigs without collaps −150 cm H2O, %",[1],0%
same,"Percent pigs without collaps −150 cm H2O, %",[2],0%
same,"Percent pigs without collaps −150 cm H2O, %",[3],0%
same,"Percent pigs without collaps −150 cm H2O, %",[4],0%
same,"Percent pigs without collaps −150 cm H2O, %",[5],50%
same,"Percent pigs without collaps −150 cm H2O, %",[6],25%
same,"Percent pigs without collaps −150 cm H2O, %",[7],0%
same,"Percent pigs without collaps −150 cm H2O, %",[8],0%
same,"Percent pigs without collaps −150 cm H2O, %",[9],0%
same,"Percent pigs without collaps −150 cm H2O, %",[10],0%
"CCN(CC)CC#CCOC(=O)[C@](O)(c1ccccc1)C1CCCCC1 [R-oxybutynin, R-Oxybutynin]",upper airway collapsibility at the negative pressure of −50 cm head (cm H2O),"R-Oxybutynin intravenous bolus 1 mg/kg + infusion 0,275 mg/kg/h, time point 60 min",inhibited
same,"Percent pigs without collaps −50 cm H2O, %",[11],0%
same,"Percent pigs without collaps −50 cm H2O, %",[12],0%
same,"Percent pigs without collaps −50 cm H2O, %",[13],0%
same,"Percent pigs without collaps −50 cm H2O, %",[14],100%
same,"Percent pigs without collaps −50 cm H2O, %",[15],0%
same,"Percent pigs without collaps −50 cm H2O, %",[16],0%
same,"Percent pigs without collaps −50 cm H2O, %",[17],0%
same,"Percent pigs without collaps −100 cm H2O, %",[11],0%
same,"Percent pigs without collaps −100 cm H2O, %",[12],0%
same,"Percent pigs without collaps −100 cm H2O, %",[13],0%
same,"Percent pigs without collaps −100 cm H2O, %",[14],50%
same,"Percent pigs without collaps −100 cm H2O, %",[15],0%
same,"Percent pigs without collaps −100 cm H2O, %",[16],0%
same,"Percent pigs without collaps −100 cm H2O, %",[17],0%
same,"Percent pigs without collaps −150 cm H2O, %",[11],0%
same,"Percent pigs without collaps −150 cm H2O, %",[12],0%
same,"Percent pigs without collaps −150 cm H2O, %",[13],0%
same,"Percent pigs without collaps −150 cm H2O, %",[14],0%
same,"Percent pigs without collaps −150 cm H2O, %",[15],0%
same,"Percent pigs without collaps −150 cm H2O, %",[16],0%
same,"Percent pigs without collaps −150 cm H2O, %",[17],0%
same,"inhibited upper airway collapsibility at all negative pressures of −50, −100 and −150 cm head (cm H2O) in all pigs",[18],at no time
"CCN(CC)CC#CCOC(=O)C(O)(c1ccccc1)C1CCCCC1 (stereo not drawn) [oxybutynin, Oxybutynin]","Percent pigs without collaps −50 cm H2O, %",[19],0%
same,"Percent pigs without collaps −50 cm H2O, %",[20],0%
same,"Percent pigs without collaps −50 cm H2O, %",[21],0%
same,"Percent pigs without collaps −50 cm H2O, %",[22],0%
same,"Percent pigs without collaps −50 cm H2O, %",[23],0%
same,"Percent pigs without collaps −50 cm H2O, %",[24],0%
same,"Percent pigs without collaps −50 cm H2O, %",[25],0%
same,"Percent pigs without collaps −100 cm H2O, %",[19],0%
same,"Percent pigs without collaps −100 cm H2O, %",[20],0%
same,"Percent pigs without collaps −100 cm H2O, %",[21],0%
same,"Percent pigs without collaps −100 cm H2O, %",[22],0%
same,"Percent pigs without collaps −100 cm H2O, %",[23],0%
same,"Percent pigs without collaps −100 cm H2O, %",[24],0%
same,"Percent pigs without collaps −100 cm H2O, %",[25],0%
same,"Percent pigs without collaps −150 cm H2O, %",[19],0%
same,"Percent pigs without collaps −150 cm H2O, %",[20],0%
same,"Percent pigs without collaps −150 cm H2O, %",[21],0%
same,"Percent pigs without collaps −150 cm H2O, %",[22],0%
same,"Percent pigs without collaps −150 cm H2O, %",[23],0%
same,"Percent pigs without collaps −150 cm H2O, %",[24],0%
same,"Percent pigs without collaps −150 cm H2O, %",[25],0%
same,"inhibited upper airway collapsibility at all negative pressures of −50, −100 and −150 cm head (cm H2O) in all pigs",[18],at no time
